Laboratory results published in ChEMBL document CHEMBL3853353, “Identification and optimization of a new series of anti-tubercular quinazolinones” (Bioorg Med Chem Lett, 2016).
≈ marks a conversion by molar mass, not a printed value.

Tested on: not listed separately
Test: Cytotoxicity against human HepG2 cells assessed as reduction in cell viability after 40 hrs by Celltiter-Glo assay
Details: HepG2 cells

Row | Compound | IC50 at 40 h [µM]
1 | COc1ccc(CCCNc2nc3cc(Cl)ccc3c(=O)n2C)cc1 | 16.8
2 | Cn1c(NCCc2ccc(-c3ccccc3)nn2)nc2cc(Cl)ccc2c1=O | 15.1
3 | COc1ccc(CCNc2nc3cc(Cl)c(F)cc3c(=O)n2C)cc1 | > 30
4 | COc1ccc(NCc2nc3cc(Cl)ccc3c(=O)n2C)cc1 | 15.7
5 | COCCOc1ccc(CCNc2nc3cc(Cl)ccc3c(=O)n2C)cc1 | > 30
6 | COc1ccc(-c2ccc(CCNc3nc4cc(Cl)ccc4c(=O)n3C)nc2)cc1 | 14.7
7 | COc1ccc(CCNc2nc3ccc(Cl)cc3c(=O)n2C)cc1 | 26.1
8 | Cn1c(NCCc2ccc(-c3ccc(Cl)cc3)nn2)nc2cc(Cl)ccc2c1=O | > 30
9 | CCn1c(NCCc2ccc(OC)cc2)nc2cc(Cl)ccc2c1=O | 21
10 | Cn1c(NCCc2ccc(Oc3ccccn3)cc2)nc2cc(Cl)ccc2c1=O | 12.1
11 | COc1ccc(CCNc2nc3ccccc3c(=O)n2C)cc1 | > 30
12 | Cn1c(NCCc2ccc(-c3ccccc3)cn2)nc2cc(Cl)ccc2c1=O | 18.3
13 | COc1ccc(-c2ccc(CCNc3nc4cc(Cl)ccc4c(=O)n3C)cc2)nc1 | 11.9
14 | COc1ccc(-c2ccc(CCNc3nc4cc(Cl)ccc4c(=O)n3C)nc2)cn1 | 24.1
15 | COc1ccc(CCNc2nc3cc(C#N)ccc3c(=O)n2C)cc1 | 12.7
16 | COc1ccc(CCNc2nc3cc(F)ccc3c(=O)n2C)cc1 | > 30
17 | COc1ccc(CCN(C)c2nc3cc(Cl)ccc3c(=O)n2C)cc1 | > 30
18 | COc1ccc(-c2ccc(CCNc3nc4cc(Cl)ccc4c(=O)n3C)cc2)cn1 | 11.3

Same assay, conditions: hepg2

Row | Compound | IC50 at 40 h [µM]
19 | Cn1c(NCCc2ccc(-c3ccccn3)cc2)nc2cc(Cl)ccc2c1=O | 16.5
20 | Cn1c(NCCc2ccc(Oc3ccc(Cl)cn3)cc2)nc2cc(Cl)ccc2c1=O | 13
21 | Cn1c(NCCc2ccc(-n3cccn3)cc2)nc2cc(Cl)ccc2c1=O | 17.3
22 | Cn1c(NCCc2ccc(-c3ncccn3)cc2)nc2cc(Cl)ccc2c1=O | 25.4

Tested on: not listed separately
Test: Lipophilicity, log P of compound
Details: octanol/water

Row | Compound | logP
23 | COc1ccc(CCNc2nc3cc(N(C)C)ccc3c(=O)n2C)cc1 | 1.94
24 | COCCOc1ccc(CCNc2nc3cc(Cl)ccc3c(=O)n2C)cc1 | 3.86
25 | COc1ccc(-c2ccc(CCNc3nc4cc(Cl)ccc4c(=O)n3C)nc2)cc1 | 4.03
26 | Cn1c(NCCc2ccc(-c3ccc(Cl)cc3)nn2)nc2cc(Cl)ccc2c1=O | 4.67
27 | COc1ccc(CCNc2nc3cc(N)ccc3c(=O)n2C)cc1 | 1.94
28 | COc1ccc(-c2ccc(CCNc3nc4cc(Cl)ccc4c(=O)n3C)cc2)nc1 | 4.67
29 | COc1ccc(-c2ccc(CCNc3nc4cc(Cl)ccc4c(=O)n3C)cc2)cn1 | 4.68

Tested on: Mycobacterium tuberculosis
Test: Antimycobacterial activity against Mycobacterium tuberculosis H37Rv incubated for 5 days in presence of 25% human serum by Bactiter-Glo assay
Format: functional
Details: 120 h

Row | Compound | MIC80 [µM]
30 | COCCOc1ccc(CCNc2nc3cc(Cl)ccc3c(=O)n2C)cc1 | > 10
31 | Cn1c(NCCc2ccc(-c3ccc(Cl)cc3)nn2)nc2cc(Cl)ccc2c1=O | 3.32
32 | Cn1c(NCCc2ccc(-c3ccccn3)cc2)nc2cc(Cl)ccc2c1=O | 25.2
33 | Cn1c(NCCc2ccc(Oc3ccc(Cl)cn3)cc2)nc2cc(Cl)ccc2c1=O | 1.76
34 | COc1ccc(CCNc2nc3cc(N)ccc3c(=O)n2C)cc1 | 0.198
35 | Cn1c(NCCc2ccc(Oc3ccccn3)cc2)nc2cc(Cl)ccc2c1=O | 7.37
36 | Cn1c(NCCc2ccc(-n3cccn3)cc2)nc2cc(Cl)ccc2c1=O | 8.56
37 | Cn1c(NCCc2ccc(-c3ncccn3)cc2)nc2cc(Cl)ccc2c1=O | 4.06
38 | COc1ccc(-c2ccc(CCNc3nc4cc(Cl)ccc4c(=O)n3C)nc2)cn1 | > 15

Tested on: Mycobacterium tuberculosis
Test: Ratio of MIC80 for Mycobacterium tuberculosis H37Rv in presence of 25% human serum to MIC80 for Mycobacterium tuberculosis H37Rv
Format: functional
Details: not given

Row | Compound | Ratio
39 | COc1ccc(CCCNc2nc3cc(Cl)ccc3c(=O)n2C)cc1 | >10
40 | Cn1c(NCCc2ccc(-c3ccccc3)nn2)nc2cc(Cl)ccc2c1=O | 8
41 | COc1ccc(CCNc2nc3cc(Cl)c(F)cc3c(=O)n2C)cc1 | >10
42 | COc1ccc(CCNc2nc3cc(N(C)C)ccc3c(=O)n2C)cc1 | >10
43 | COc1ccc(-c2ccc(CCNc3nc4cc(Cl)ccc4c(=O)n3C)nn2)cc1 | 8
44 | COc1ccc(NCc2nc3cc(Cl)ccc3c(=O)n2C)cc1 | >10
45 | COCCOc1ccc(CCNc2nc3cc(Cl)ccc3c(=O)n2C)cc1 | 8
46 | COc1ccc(-c2ccc(CCNc3nc4cc(Cl)ccc4c(=O)n3C)nc2)cc1 | 8
47 | COc1ccc(CCNc2nc3ccc(Cl)cc3c(=O)n2C)cc1 | >10
48 | Cn1c(NCCc2ccc(-c3ccc(Cl)cc3)nn2)nc2cc(Cl)ccc2c1=O | 8
49 | CCn1c(NCCc2ccc(OC)cc2)nc2cc(Cl)ccc2c1=O | >10
50 | COc1ccc(CCNc2nc3cc(N)ccc3c(=O)n2C)cc1 | 5
51 | Cn1c(NCCc2ccc(Oc3ccccn3)cc2)nc2cc(Cl)ccc2c1=O | 8
52 | COc1ccc(CCNc2nc3cc(Cl)ccc3c(=O)[nH]2)cc1 | >10
53 | COc1ccc(CCNc2nc3ccccc3c(=O)n2C)cc1 | >10
54 | Cn1c(NCCc2ccc(-c3ccccc3)cn2)nc2cc(Cl)ccc2c1=O | 8
55 | COc1ccc(-c2ccc(CCNc3nc4cc(Cl)ccc4c(=O)n3C)cc2)nc1 | 8
56 | COc1ccc(-c2ccc(CCNc3nc4cc(Cl)ccc4c(=O)n3C)nc2)cn1 | 8
57 | COc1ccc(CCNc2nc3cc(C#N)ccc3c(=O)n2C)cc1 | >10
58 | COc1ccc(CCNc2nc3cc(F)ccc3c(=O)n2C)cc1 | >10
59 | COc1ccc(CCN(C)c2nc3cc(Cl)ccc3c(=O)n2C)cc1 | >10
60 | COc1ccc(-c2ccc(CCNc3nc4cc(Cl)ccc4c(=O)n3C)cc2)cn1 | 8

Tested on: Mycobacterium tuberculosis
Test: Antimycobacterial activity against Mycobacterium tuberculosis H37Rv incubated for 5 days by Bactiter-Glo assay
Format: functional
Details: 120 h

Row | Compound | MIC80 [µM]
61 | COc1ccc(CCCNc2nc3cc(Cl)ccc3c(=O)n2C)cc1 | 5.8 (≈ 2.08 µg/mL)
62 | Cn1c(NCCc2ccc(-c3ccccc3)nn2)nc2cc(Cl)ccc2c1=O | 1.12 (≈ 0.439 µg/mL)
63 | COc1ccc(CCNc2nc3cc(Cl)c(F)cc3c(=O)n2C)cc1 | 0.03 (≈ 0.0109 µg/mL)
64 | COc1ccc(CCNc2nc3cc(N(C)C)ccc3c(=O)n2C)cc1 | 0.11 (≈ 0.0388 µg/mL)
65 | COc1ccc(-c2ccc(CCNc3nc4cc(Cl)ccc4c(=O)n3C)nn2)cc1 | 0.74 (≈ 0.312 µg/mL)
66 | COc1ccc(NCc2nc3cc(Cl)ccc3c(=O)n2C)cc1 | 19.9 (≈ 6.56 µg/mL)
67 | COCCOc1ccc(CCNc2nc3cc(Cl)ccc3c(=O)n2C)cc1 | 0.08 (≈ 0.031 µg/mL)
68 | COc1ccc(-c2ccc(CCNc3nc4cc(Cl)ccc4c(=O)n3C)nc2)cc1 | 0.32 (≈ 0.135 µg/mL)
69 | COc1ccc(CCNc2nc3ccc(Cl)cc3c(=O)n2C)cc1 | 0.9 (≈ 0.309 µg/mL)
70 | Cn1c(NCCc2ccc(-c3ccc(Cl)cc3)nn2)nc2cc(Cl)ccc2c1=O | 0.03 (≈ 0.0128 µg/mL)
71 | CCn1c(NCCc2ccc(OC)cc2)nc2cc(Cl)ccc2c1=O | 1.1 (≈ 0.394 µg/mL)
72 | Cn1c(NCCc2ccc(-c3ccccn3)cc2)nc2cc(Cl)ccc2c1=O | 0.027 (≈ 0.0106 µg/mL)
73 | Cn1c(NCCc2ccc(Oc3ccc(Cl)cn3)cc2)nc2cc(Cl)ccc2c1=O | 0.02 (≈ 0.00883 µg/mL)
74 | COc1ccc(CCNc2nc3cc(N)ccc3c(=O)n2C)cc1 | 0.04 (≈ 0.013 µg/mL)
75 | Cn1c(NCCc2ccc(Oc3ccccn3)cc2)nc2cc(Cl)ccc2c1=O | 0.06 (≈ 0.0244 µg/mL)
76 | Cn1c(NCCc2ccc(-n3cccn3)cc2)nc2cc(Cl)ccc2c1=O | 0.02 (≈ 0.0076 µg/mL)
77 | COc1ccc(CCNc2nc3cc(Cl)ccc3c(=O)[nH]2)cc1 | 6.3 (≈ 2.08 µg/mL)
78 | COc1ccc(CCNc2nc3ccccc3c(=O)n2C)cc1 | 0.24 (≈ 0.0742 µg/mL)
79 | Cn1c(NCCc2ccc(-c3ncccn3)cc2)nc2cc(Cl)ccc2c1=O | 0.079 (≈ 0.031 µg/mL)
80 | Cn1c(NCCc2ccc(-c3ccccc3)cn2)nc2cc(Cl)ccc2c1=O | 0.004 (≈ 0.00156 µg/mL)
81 | COc1ccc(-c2ccc(CCNc3nc4cc(Cl)ccc4c(=O)n3C)cc2)nc1 | 0.06 (≈ 0.0253 µg/mL)
82 | COc1ccc(-c2ccc(CCNc3nc4cc(Cl)ccc4c(=O)n3C)nc2)cn1 | 0.31 (≈ 0.131 µg/mL)
83 | COc1ccc(CCNc2nc3cc(C#N)ccc3c(=O)n2C)cc1 | 0.48 (≈ 0.161 µg/mL)
84 | COc1ccc(CCNc2nc3cc(F)ccc3c(=O)n2C)cc1 | 0.2 (≈ 0.0655 µg/mL)
85 | COc1ccc(CCN(C)c2nc3cc(Cl)ccc3c(=O)n2C)cc1 | 11.2 (≈ 4.01 µg/mL)
86 | COc1ccc(-c2ccc(CCNc3nc4cc(Cl)ccc4c(=O)n3C)cc2)cn1 | 0.09 (≈ 0.0379 µg/mL)
